Source: patent publication US20250353891A1 (MEDIMMUNE LIMITED, priority 2022, published 2025)
Starred links: 1 amine or outer side, 2 acyl side, 3 side chain; linkers in the order of their positions; H or OH if unused. Non-standard residues stand in square brackets, D forms with d. Residues, ends and D or L forms follow the SMILES beside them. Groups on a side chain read outwards from the residue. *: point of attachment. C20 diacid = O=C(O)CCCCCCCCCCCCCCCCCCC(=O)*; C18 diacid = O=C(O)CCCCCCCCCCCCCCCCC(=O)*; γGlu = O=C(O)[C@H](CCC(=O)[*:2])N[*:1]; Stearoyl = CCCCCCCCCCCCCCCCCC(=O)*; αMeF = C[C@](N)(Cc1ccccc1)C(=O)O; PEG2 = NCCOCCOCCC(=O)O; AEEA = NCCOCCOCC(=O)O; Aib = CC(C)(N)C(=O)O

Columns and labels:
[1] = target: human glucagon receptor (hGCGR) (Homo sapiens, UniProt P47871); assay: cAMP production (HTRF) in CHO cells expressing hGCGR; assay type: cell-based; set-up: expressed in transfected cells; conditions: Table 6, peptides modified at position 17; cAMP in CHO hGCGR cells; geometric mean; read-out: hGluc-R EC50
How it was run: (§1)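 Read-out: HTRF cAMP (anti-cAMP cryptate donor, cAMP-d2 acceptor in conjugate/lysis buffer), converted to % Delta F and fitted by 4-parameter logistic for EC50. Cell densities were 1×10^5 cells/mL (hGLP-1R) or 2×10^5 cells/mL (hGCGR). Stimulation lasted 30 min at room temperature.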

[2] = test system: GLP-1R knockout (KO) mice; assay: Glucose change in GLP-1R knockout mice; assay type: in vivo, mouse; conditions: GLP-1R KO mice, s.c., 3 nmol/kg, 120 min vs 0 min, no somatostatin pretreatment
How it was run: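 GLP-1R knockout mice (n=4-8/group, sorted by body weight) were fasted 2 h, and in some studies pretreated with octreotide 10 mg/kg 30 min before peptide injection. Mice were reused up to 3 times with at least 1-week wash-out.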

[3] = Proteolytic resistance to FasSSIF/Pancreatin; assay type: in vitro ADME; conditions: simulated intestinal fluid
How it was run: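 Peptide (1.0 mg) in pre-warmed FasSSIF, proteolysis started with fresh FasSSIF/USP Pancreatin and held at 37 °C. Aliquots at 0, 5, 10, 15, 30 min quenched in 10% TFA; remaining intact peptide estimated by RP-HPLC peak area, UV 210 nm.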

wildtype (WT) mice = assay: Glucose change in wildtype mice; assay type: in vivo, mouse; conditions: s.c., 3 nmol/kg, 120 min vs 0 min, no somatostatin pretreatment
How it was run: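 Wildtype mice aged 8-14 weeks, fasted 2 h, sometimes pre-treated with octreotide 10 mg/kg 30 min before peptide injection. Blood glucose by glucometer at -30, 0, 30, 60, 120, 180, 240 and 360 min; n=4-8/group, mice reused up to 3 times with ≥1 week wash-out.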

recombinant Neprilysin = target: T1, recombinant Neprilysin (Homo sapiens, UniProt P08473); assay: Proteolytic resistance to neprilysin; assay type: in vitro ADME; conditions: pH 8.3
T1 construct: purchased R&D Systems 1182-ZNC-010
Method: 10.0 μg (˜10 units) recombinant Neprilysin (R&D Systems: 1182-ZNC-010) was reconstituted to 100 μL (100 μg/mL, ˜100 units/mL) in assay buffer (50 mM Tris, 50 mM NaCl, 50 mM NaHCO3, adjusted to pH 8.3) to give the enzyme stock solution. Peptide stock solutions were prepared to a concentration of ˜250 μM (˜1.0 mg/mL of 4 kDa peptide) in assay buffer. 100 μL (10 μg, ˜10 units) of neprilysin stock solution was added to 100 μL of peptide stock solution (1.0 mg/mL, ˜100 μg of peptide) and the mixture was co-incubated in a temperature regulated incubator at 37° C. for the duration of the experiment. 25 μL aliquots (˜ 12.5 μg initial peptide) of the peptide-enzyme mixture were periodically withdrawn (t=0, 30 mins, 1 h, 2 h, 4 h and 24 h) and quenched immediately by addition to an equal volume ([…]) of 10% TFA (v/v) in 1:1 water/acetonitrile to arrest proteolytic activity. The quenched aliquot centrifuged at 7800 rpm, and 30 μL of the supernatant was analyzed by analytical RP-HPLC as follows: Analytical RP-HPLC method: Agilent Polaris C8-A column (4.6×100 mm, 3 micron) eluted with a linear binary gradient of 10-90% MeCN (0.1% TFA v/v) in water (0.1% TFA v/v) over either 10 or 15 mins at 1.5 mL min-1 at 40° C. with detection by UV absorption at 210 nm. Manual integration (AUC) allowed estimation of remaining intact peptide over the time course of the experiment.

[4] = target: human GLP-1 receptor (hGLP-1R) (Homo sapiens, UniProt P43220); assay: cAMP production (HTRF) in CHO cells expressing hGLP-1R; assay type: cell-based; set-up: expressed in transfected cells; conditions: for EC50: Table 6, peptides modified at position 17, cAMP in CHO hGLP-1R cells, geometric mean, read-out: hGLP-1R EC50; for % Relative Potency Ratio: Table 6, % GLP-1R activity relative to GLP-1 / % GlucR activity relative to glucagon
How it was run: as §1

[5] = Proteolytic resistance to FasSSGF containing porcine pancreatic pepsin; assay type: in vitro ADME; conditions: pig, simulated gastric fluid
Method: Stimulated Gastric Fluid (FasSSGF) Containing Porcine Pancreatic Pepsin Lyophilized porcine pancreatic pepsin (Sigma: P7012) was reconstituted to 0.5 mg/mL (˜2500 units/mL) in freshly prepared FasSSGF (Biorelevant media) to give the enzyme stock solution. Peptide stock solution was prepared to a concentration of 250 μM (˜1.0 mg/mL) in FasSSGF. 200 μL ([…], ˜250 units) of pepsin stock solution was added to 200 μL of peptide solution (1.0 mg/mL, ˜100 μg of peptide, ˜25 nmoles) and the mixture was co-incubated in a temperature-regulated incubator at 37° C. for the duration of the experiment. 30 μL aliquot of the peptide-enzyme mixture was periodically withdrawn (t=0, 5, 10, 15, and 30 min) and quenched immediately by addition of 80 μL of 0.1M ammonium bicarbonate solution in water/acetonitrile (4:1, pH 8) to arrest proteolytic activity. 30 μL aliquot was analyzed by analytical RP-HPLC. Analytical RP-HPLC method: Agilent Polaris C8-A column (4.6×100 mm, 3 micron) eluted with a linear binary gradient of 10-90% MeCN (0.1% TFA v/v) in water (0.1% TFA v/v) over either 10 or 15 mins at 1.5 mL min-1 at 40° C. with detection by UV absorption at 210 nm. Manual integration (AUC) allowed estimation of remaining intact peptide over the time course of the experiment.

in vivo = conditions: male, C57BL/6, mouse, 10 nmol/kg; for half-life: iv
From the text: Selected test peptides (n=8) were profiled for pharmacokinetic (PK) properties in the mouse after single intravenous (i.v.) or subcutaneous (s.c.) dose. A subset (n=4) meeting the acceptance criteria was subsequently profiled in the dog (single i.v. dose) and non-human primate (single i.v. and s.c. dose). […] Low-binding plasticware containers were used during preparation and sample handling to avoid non-specific binding.
After dosing, PK samples were collected from the dorsal metatarsal vein. Blood of each sample was transferred into plastic micro centrifuge tubes containing EDTA-K2, inverted several times for proper mixing of contents and then placed on wet ice. The blood samples were centrifuged at 4° C. to obtain plasma and stored at −75° C. prior to analysis.
Samples analysis: Samples were analyzed by LC-MS/MS. Calibration standards were injected at the beginning and end of each batch and the determined concentration for each prepared standard was used to construct a calibration curve. Plasma and dose aliquot sample concentrations were determined from the plasma calibration curve.
Data analysis: Plasma concentration data was analyzed by non-compartmental analysis (NCA) using Phoenix Winnonlin v. 8.3.3.33. Linear trapezoidal rule was used for increasing values and log trapezoidal rule was used for decreasing values, applying uniform weighting for lambda_z calculations. Subcutaneous bioavailability was calculated as the ratio AUC(s.c.)0-inf/AUC(i.v.)0-inf. Reported values (Table 18) represent the mean of the individual estimates.

Chain of human GLP-1 receptor (hGLP-1R) (P43220 24-463): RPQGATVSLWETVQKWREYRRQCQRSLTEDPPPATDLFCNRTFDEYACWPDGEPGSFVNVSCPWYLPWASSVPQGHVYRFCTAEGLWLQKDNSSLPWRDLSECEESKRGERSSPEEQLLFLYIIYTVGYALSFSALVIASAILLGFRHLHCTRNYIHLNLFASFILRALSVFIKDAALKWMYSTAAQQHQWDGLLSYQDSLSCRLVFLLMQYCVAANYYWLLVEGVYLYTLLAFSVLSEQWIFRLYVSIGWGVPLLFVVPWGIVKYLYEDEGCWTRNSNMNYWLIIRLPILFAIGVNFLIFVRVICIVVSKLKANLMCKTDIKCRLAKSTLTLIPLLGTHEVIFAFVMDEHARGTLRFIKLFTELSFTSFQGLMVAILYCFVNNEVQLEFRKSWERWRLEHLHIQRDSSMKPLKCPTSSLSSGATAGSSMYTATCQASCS
Chain of human glucagon receptor (hGCGR) (P47871 26-477): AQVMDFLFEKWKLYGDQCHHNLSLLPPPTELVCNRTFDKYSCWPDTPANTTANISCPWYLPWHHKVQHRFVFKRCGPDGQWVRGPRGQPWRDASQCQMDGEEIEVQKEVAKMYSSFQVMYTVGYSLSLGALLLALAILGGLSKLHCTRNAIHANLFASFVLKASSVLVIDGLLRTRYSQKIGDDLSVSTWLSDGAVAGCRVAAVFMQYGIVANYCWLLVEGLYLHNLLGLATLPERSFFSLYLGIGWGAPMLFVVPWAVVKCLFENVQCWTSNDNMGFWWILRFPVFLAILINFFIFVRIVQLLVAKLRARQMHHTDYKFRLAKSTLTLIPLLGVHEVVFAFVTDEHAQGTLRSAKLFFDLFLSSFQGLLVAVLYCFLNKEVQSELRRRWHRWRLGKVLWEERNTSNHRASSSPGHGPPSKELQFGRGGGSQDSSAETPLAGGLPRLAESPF
T1 sequence (P08473 52-750 limits assumed): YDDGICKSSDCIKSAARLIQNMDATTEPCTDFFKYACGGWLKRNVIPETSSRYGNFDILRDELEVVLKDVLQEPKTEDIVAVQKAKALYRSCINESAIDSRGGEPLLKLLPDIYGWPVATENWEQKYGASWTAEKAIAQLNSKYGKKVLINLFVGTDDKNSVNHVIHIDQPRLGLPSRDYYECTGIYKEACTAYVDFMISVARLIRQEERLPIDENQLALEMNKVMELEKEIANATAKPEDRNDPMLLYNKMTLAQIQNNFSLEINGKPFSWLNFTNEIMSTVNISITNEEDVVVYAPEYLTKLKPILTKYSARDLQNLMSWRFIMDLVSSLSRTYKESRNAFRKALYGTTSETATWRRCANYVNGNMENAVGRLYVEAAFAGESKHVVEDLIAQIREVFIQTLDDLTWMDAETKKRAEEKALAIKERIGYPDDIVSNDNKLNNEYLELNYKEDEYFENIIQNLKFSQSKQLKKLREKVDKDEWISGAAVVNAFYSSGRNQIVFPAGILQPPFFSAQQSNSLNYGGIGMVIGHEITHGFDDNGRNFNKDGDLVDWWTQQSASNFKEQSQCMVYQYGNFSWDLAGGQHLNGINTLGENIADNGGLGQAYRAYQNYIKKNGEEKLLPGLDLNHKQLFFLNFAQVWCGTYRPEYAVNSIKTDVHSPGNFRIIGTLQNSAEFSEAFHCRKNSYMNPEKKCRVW

EC50 [1] [nM] | remaining at 5 min, 3.3 mg/mL [3] [%] | remaining at 10 min, 3.3 mg/mL [3] [%] | remaining at 0.25 h, 3.3 mg/mL [3] [%] | remaining at 0.5 h, 3.3 mg/mL [3] [%] | remaining at 4 h (recombinant Neprilysin; isolated enzyme neprilysin) [%] | remaining at 24 h (recombinant Neprilysin; isolated enzyme neprilysin) [%] | % intact peptide over time (recombinant Neprilysin) [%] | EC50 [4] [nM] | % Relative Potency Ratio [4] | remaining at 0.25 h, 125 µM [5] [%] | remaining at 0.5 h, 125 µM [5] [%] | bioavailability (in vivo) [%] | half-life (in vivo) [h] | Compound | GLP-1R KO % glucose change 120 min [2] [%] | WT % glucose change 120 min (wildtype (WT) mice) [%]
0.00897 | 83 | 76 | 69 | 58 | 100 | 100 | 100 | 0.00114 | 15.6 | 100 | 100 | – | – | CCCCCCCCCCCCCCCCCC(=O)N[C@@H](CCC(=O)N[C@@H](CCC(=O)NCCOCCOCCC(=O)NCCOCCOCCC(=O)NCCCC[C@H](NC(=O)[C@H](CO)NC(=O)[C@H](CC(=O)O)NC(=O)[C@H](CC(C)C)NC(=O)[C@](C)(Cc1ccccc1)NC(=O)[C@H](CCCCN)NC(=O)[C@H](CO)NC(=O)[C@@H](NC(=O)[C@H](CC(=O)O)NC(=O)[C@H](CO)NC(=O)[C@@H](NC(=O)[C@](C)(Cc1ccccc1)NC(=O)[C@H](CO)NC(=O)CNC(=O)[C@H](CCC(N)=O)NC(=O)[C@H](CO)NC(=O)[C@@H](N)Cc1c[nH]cn1)[C@@H](C)O)C(C)C)C(=O)N[C@@H](C)C(=O)N[C@@H](C)C(=O)N[C@@H](CCC(N)=O)C(=O)N[C@@H](CC(=O)O)C(=O)N[C@@](C)(Cc1ccccc1)C(=O)N[C@H](C(=O)N[C@@H](CCC(N)=O)C(=O)NC(C)(C)C(=O)N[C@@H](CC(C)C)C(=O)N[C@@H](CCC(=O)O)C(=O)N[C@@H](C)C(=O)NCC(=O)NCC(N)=O)C(C)C)C(=O)O)C(=O)O [Peptide 78] (H-HSQGS[αMeF]TSDVSK[αMeF]LDSK([PEG2-PEG2-γGlu-γGlu-Stearoyl])AAQD[αMeF]VQ[Aib]LEAGG-NH2; N-terminus assumed) | 51.3 | −42.0
0.0369 | – | – | – | – | – | – | – | 0.0231 | 3.2 | – | – | 49 | 5.7 | CC(C)C[C@H](NC(=O)[C@H](Cc1c[nH]c2ccccc12)NC(=O)[C@H](CCCNC(=N)N)NC(=O)[C@@H](NC(=O)[C@H](Cc1ccccc1)NC(=O)[C@H](CC(=O)O)NC(=O)[C@H](CCC(N)=O)NC(=O)[C@H](C)NC(=O)[C@H](CCCNC(=N)N)NC(=O)[C@H](CCCCNC(=O)COCCOCCNC(=O)COCCOCCNC(=O)CC[C@H](NC(=O)CCCCCCCCCCCCCCCCC(=O)O)C(=O)O)NC(=O)[C@H](CCCCN)NC(=O)[C@H](CC(=O)O)NC(=O)[C@H](CC(C)C)NC(=O)[C@](C)(Cc1ccccc1)NC(=O)[C@H](CCCCN)NC(=O)[C@H](CO)NC(=O)[C@@H](NC(=O)[C@H](CC(=O)O)NC(=O)[C@H](CO)NC(=O)[C@@H](NC(=O)[C@H](Cc1ccccc1)NC(=O)[C@@H](NC(=O)CNC(=O)[C@H](CCC(N)=O)NC(=O)C(C)(C)NC(=O)[C@@H](N)Cc1c[nH]cn1)[C@@H](C)O)[C@@H](C)O)C(C)C)C(C)C)C(=O)N[C@@H](CC(C)C)C(=O)NC(C)(C)C(=O)N[C@@H](CCC(=O)O)C(N)=O [Peptide 420] (H-H[Aib]QGTFTSDVSK[αMeF]LDKK([AEEA-AEEA-γGlu-C18 diacid])RAQDFVRWLL[Aib]E-NH2; N-terminus assumed) | – | –
0.0111 | – | – | – | – | – | – | – | 0.00763 | 2.9 | – | – | 83 | 2.9 | CC(C)C[C@H](NC(=O)[C@H](Cc1c[nH]c2ccccc12)NC(=O)[C@H](CCC(N)=O)NC(=O)[C@@H](NC(=O)[C@H](Cc1ccccc1)NC(=O)[C@H](CC(=O)O)NC(=O)[C@H](CCCNC(=N)N)NC(=O)[C@H](C)NC(=O)[C@H](CCCNC(=N)N)NC(=O)[C@H](CCCCNC(=O)COCCOCCNC(=O)COCCOCCNC(=O)CC[C@H](NC(=O)CCCCCCCCCCCCCCCCC(=O)O)C(=O)O)NC(=O)[C@H](CCCCN)NC(=O)[C@H](CC(=O)O)NC(=O)[C@H](CC(C)C)NC(=O)[C@](C)(Cc1ccccc1)NC(=O)[C@H](CCCCN)NC(=O)[C@H](CO)NC(=O)[C@@H](NC(=O)[C@H](CC(=O)O)NC(=O)[C@H](CO)NC(=O)[C@@H](NC(=O)[C@H](Cc1ccccc1)NC(=O)[C@@H](NC(=O)CNC(=O)[C@H](CCC(N)=O)NC(=O)C(C)(C)NC(=O)[C@@H](N)Cc1c[nH]cn1)[C@@H](C)O)[C@@H](C)O)C(C)C)C(C)C)C(=O)N[C@@H](CC(C)C)C(=O)NC(C)(C)C(=O)N[C@@H](CCC(=O)O)C(N)=O [Peptide 472] (H-H[Aib]QGTFTSDVSK[αMeF]LDKK([AEEA-AEEA-γGlu-C18 diacid])RARDFVQWLL[Aib]E-NH2; N-terminus assumed) | – | –
0.117 | – | – | – | – | – | – | – | 0.0541 | 4.3 | – | – | 50 | 8.9 | CC(C)C[C@H](NC(=O)[C@H](CC(C)C)NC(=O)[C@H](Cc1c[nH]c2ccccc12)NC(=O)[C@H](CCCNC(=N)N)NC(=O)[C@@H](NC(=O)[C@H](Cc1ccccc1)NC(=O)[C@H](CC(=O)O)NC(=O)[C@H](CCC(N)=O)NC(=O)[C@H](C)NC(=O)[C@H](CCCNC(=N)N)NC(=O)[C@H](CCCCNC(=O)COCCOCCNC(=O)COCCOCCNC(=O)CC[C@H](NC(=O)CCCCCCCCCCCCCCCCCCC(=O)O)C(=O)O)NC(=O)[C@@H](NC(=O)[C@H](CC(=O)O)NC(=O)[C@H](CC(C)C)NC(=O)[C@](C)(Cc1ccccc1)NC(=O)[C@H](CCCCN)NC(=O)[C@H](CO)NC(=O)[C@@H](NC(=O)[C@H](CC(=O)O)NC(=O)[C@H](CO)NC(=O)[C@@H](NC(=O)[C@H](Cc1ccccc1)NC(=O)[C@@H](NC(=O)CNC(=O)[C@H](CCC(N)=O)NC(=O)C(C)(C)NC(=O)[C@@H](N)Cc1c[nH]cn1)[C@@H](C)O)[C@@H](C)O)C(C)C)[C@@H](C)O)C(C)C)C(=O)N[C@@H](C)C(=O)NC(C)(C)C(=O)NCC(N)=O [Peptide 477] (H-H[Aib]QGTFTSDVSK[αMeF]LDTK([AEEA-AEEA-γGlu-C20 diacid])RAQDFVRWLLA[Aib]G-NH2; N-terminus assumed) | – | –
